Source: patent US8633245B2, “PAI-1 inhibitor” (Institute of Medicinal Molecular Design, Inc., priority 2008, dated 2014)

Molecular target: T1, recombinant human PAI-1 (Homo sapiens, UniProt P05121)
T1 construct: purchased Molecular Innovations, Inc
Assay: Test Example 1: human PAI-1 inhibitory activity (tPA fluorogenic substrate, pH 7.5 Tris buffer)
Format: biochemical
Conditions: Tris buffer
Experimental: 50 mM Tris, 150 mM NaCl, 10 μg/ml BSA, 0.01% Tween80 (SIGMA-ALDRICH Corporation)

T1 sequence (P05121 24-402): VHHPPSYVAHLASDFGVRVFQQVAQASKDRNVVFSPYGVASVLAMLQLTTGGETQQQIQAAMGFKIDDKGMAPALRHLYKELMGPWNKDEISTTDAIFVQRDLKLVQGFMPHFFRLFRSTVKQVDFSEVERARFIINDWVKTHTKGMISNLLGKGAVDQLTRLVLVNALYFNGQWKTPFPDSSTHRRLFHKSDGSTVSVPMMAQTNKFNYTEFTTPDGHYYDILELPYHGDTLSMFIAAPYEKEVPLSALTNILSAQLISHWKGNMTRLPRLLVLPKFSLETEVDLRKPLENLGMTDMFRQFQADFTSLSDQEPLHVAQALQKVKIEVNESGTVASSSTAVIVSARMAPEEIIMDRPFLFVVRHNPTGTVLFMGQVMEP

## CC(C)(C)c1ccc(CN(C(=O)C(=O)O)c2ccc(-c3ccc(C#N)cc3)cc2)cc1 [Compound 149]
Compound Concentration 10 μM
  Inhibition Rate of PAI-1 Activity (%): 3%
Compound Concentration 25 μM
  Inhibition Rate of PAI-1 Activity (%): 34%

## CC(C)(C)c1ccc(CN(C(=O)C(=O)O)c2ccc(-c3ccc(OC(F)(F)F)cc3)cc2C(F)(F)F)cc1 [Compound 150]
Compound Concentration 5 μM
  Inhibition Rate of PAI-1 Activity (%): 33%
Compound Concentration 10 μM
  Inhibition Rate of PAI-1 Activity (%): 75%
Compound Concentration 25 μM
  Inhibition Rate of PAI-1 Activity (%): 87%

## CC(C)(C)c1ccc(CN(C(=O)C(=O)O)c2ccc(-c3ccc(OC(F)(F)F)cc3)cc2OC(F)(F)F)cc1 [Compound 151]
Compound Concentration 5 μM
  Inhibition Rate of PAI-1 Activity (%): 35%
Compound Concentration 10 μM
  Inhibition Rate of PAI-1 Activity (%): 80%
Compound Concentration 25 μM
  Inhibition Rate of PAI-1 Activity (%): 90%

## Cc1cc(-c2ccc(OC(F)(F)F)cc2)cc(C)c1N(Cc1ccc(C(C)(C)C)cc1)C(=O)C(=O)O [Compound 152]
Compound Concentration 5 μM
  Inhibition Rate of PAI-1 Activity (%): 41%
Compound Concentration 10 μM
  Inhibition Rate of PAI-1 Activity (%): 88%
Compound Concentration 25 μM
  Inhibition Rate of PAI-1 Activity (%): 93%

## CC(C)(C)c1ccc(CN(C(=O)C(=O)O)c2ccccc2Oc2ccc(OC(F)(F)F)cc2)cc1 [Compound 153]
Compound Concentration 5 μM
  Inhibition Rate of PAI-1 Activity (%): 20%
Compound Concentration 10 μM
  Inhibition Rate of PAI-1 Activity (%): 54%
Compound Concentration 25 μM
  Inhibition Rate of PAI-1 Activity (%): 93%

## O=C(O)C(=O)N(Cc1ccccc1)c1ccc(Oc2ccc(OC(F)(F)F)cc2)cc1 [Compound 154]
Compound Concentration 10 μM
  Inhibition Rate of PAI-1 Activity (%): 3%
Compound Concentration 25 μM
  Inhibition Rate of PAI-1 Activity (%): 20%

## O=C(O)C(=O)N(Cc1ccc(F)cc1)c1ccc(-c2ccc(OC(F)(F)F)cc2)cc1 [Compound 155]
Compound Concentration 5 μM
  Inhibition Rate of PAI-1 Activity (%): 7%
Compound Concentration 10 μM
  Inhibition Rate of PAI-1 Activity (%): 15%
Compound Concentration 25 μM
  Inhibition Rate of PAI-1 Activity (%): 38%

## CC(C)(C)c1ccc(-c2ccc(N(Cc3ccccc3)C(=O)C(=O)O)cc2)cc1 [Compound 156]
Compound Concentration 5 μM
  Inhibition Rate of PAI-1 Activity (%): 10%
Compound Concentration 10 μM
  Inhibition Rate of PAI-1 Activity (%): 25%
Compound Concentration 25 μM
  Inhibition Rate of PAI-1 Activity (%): 67%

## CC(C)(C)c1ccc(N(C(=O)C(=O)O)c2ccccc2-c2ccc(OC(F)(F)F)cc2)cc1 [Compound 157]
Compound Concentration 5 μM
  Inhibition Rate of PAI-1 Activity (%): 25%
Compound Concentration 10 μM
  Inhibition Rate of PAI-1 Activity (%): 56%
Compound Concentration 25 μM
  Inhibition Rate of PAI-1 Activity (%): 96%

## CC(C)(C)c1ccc(N(C(=O)C(=O)O)c2cccc(-c3ccc(OC(F)(F)F)cc3)c2)cc1 [Compound 158]
Compound Concentration 5 μM
  Inhibition Rate of PAI-1 Activity (%): 26%
Compound Concentration 10 μM
  Inhibition Rate of PAI-1 Activity (%): 61%
Compound Concentration 25 μM
  Inhibition Rate of PAI-1 Activity (%): >99%

## O=C(O)C(=O)N(Cc1ccc(OC(F)(F)F)cc1)c1ccc(-c2ccc(OC(F)(F)F)cc2)cc1 [Compound 159]
Compound Concentration 5 μM
  Inhibition Rate of PAI-1 Activity (%): 21%
Compound Concentration 10 μM
  Inhibition Rate of PAI-1 Activity (%): 45%
Compound Concentration 25 μM
  Inhibition Rate of PAI-1 Activity (%): 92%

## CSc1ccc(CN(C(=O)C(=O)O)c2ccc(-c3ccc(OC(F)(F)F)cc3)cc2)cc1 [Compound 160]
Compound Concentration 5 μM
  Inhibition Rate of PAI-1 Activity (%): 14%
Compound Concentration 10 μM
  Inhibition Rate of PAI-1 Activity (%): 26%
Compound Concentration 25 μM
  Inhibition Rate of PAI-1 Activity (%): 68%

## O=C(O)C(=O)N(Cc1ccc(-c2ccccc2)cc1)c1ccc(-c2ccc(OC(F)(F)F)cc2)cc1 [Compound 161]
Compound Concentration 5 μM
  Inhibition Rate of PAI-1 Activity (%): 27%
Compound Concentration 10 μM
  Inhibition Rate of PAI-1 Activity (%): 62%
Compound Concentration 25 μM
  Inhibition Rate of PAI-1 Activity (%): >99%

## CC(C)(C)c1ccc(-c2ccc(N(Cc3ccc(OC(F)(F)F)cc3)C(=O)C(=O)O)cc2)cc1 [Compound 162]
Compound Concentration 5 μM
  Inhibition Rate of PAI-1 Activity (%): 30%
Compound Concentration 10 μM
  Inhibition Rate of PAI-1 Activity (%): 74%
Compound Concentration 25 μM
  Inhibition Rate of PAI-1 Activity (%): >99%

## CC(C)(C)c1ccc(CN(C(=O)C(=O)O)c2ccc(-c3ccc(C(C)(C)C)cc3)cc2)cc1 [Compound 163]
Compound Concentration 5 μM
  Inhibition Rate of PAI-1 Activity (%): 37%
Compound Concentration 10 μM
  Inhibition Rate of PAI-1 Activity (%): 84%
Compound Concentration 25 μM
  Inhibition Rate of PAI-1 Activity (%): >99%

## CCCCc1ccc(-c2ccc(N(Cc3ccc(C(C)(C)C)cc3)C(=O)C(=O)O)cc2)cc1 [Compound 164]
Compound Concentration 5 μM
  Inhibition Rate of PAI-1 Activity (%): 40%
Compound Concentration 10 μM
  Inhibition Rate of PAI-1 Activity (%): 79%
Compound Concentration 25 μM
  Inhibition Rate of PAI-1 Activity (%): 96%

## CC(C)(C)c1ccc(N(C(=O)C(=O)O)c2ccc(Oc3ccc(OC(F)(F)F)cc3)cc2)cc1 [Compound 165]
Compound Concentration 5 μM
  Inhibition Rate of PAI-1 Activity (%): 27%
Compound Concentration 10 μM
  Inhibition Rate of PAI-1 Activity (%): 64%
Compound Concentration 25 μM
  Inhibition Rate of PAI-1 Activity (%): 96%

## CC(C)(C)c1ccc(CN(C(=O)C(=O)O)c2ccc(-c3ccc(OC(F)(F)F)cc3)c(C(F)(F)F)c2)cc1 [Compound 166]
Compound Concentration 5 μM
  Inhibition Rate of PAI-1 Activity (%): 44%
Compound Concentration 10 μM
  Inhibition Rate of PAI-1 Activity (%): 79%
Compound Concentration 25 μM
  Inhibition Rate of PAI-1 Activity (%): 84%

## CCCCc1ccc(CN(C(=O)C(=O)O)c2ccc(-c3ccc(OC(F)(F)F)cc3)cc2)cc1 [Compound 167]
Compound Concentration 5 μM
  Inhibition Rate of PAI-1 Activity (%): 37%
Compound Concentration 10 μM
  Inhibition Rate of PAI-1 Activity (%): 75%
Compound Concentration 25 μM
  Inhibition Rate of PAI-1 Activity (%): 87%

## CC(C)(C)c1ccc(CN(C(=O)C(=O)O)c2ccc(C(F)(F)F)cc2-c2ccc(OC(F)(F)F)cc2)cc1 [Compound 169]
Compound Concentration 5 μM
  Inhibition Rate of PAI-1 Activity (%): 59%
Compound Concentration 10 μM
  Inhibition Rate of PAI-1 Activity (%): 91%
Compound Concentration 25 μM
  Inhibition Rate of PAI-1 Activity (%): 84%

## CC(C)(C)c1ccc(N(C(=O)C(=O)O)c2cccc(Oc3ccc(OC(F)(F)F)cc3)c2)cc1 [Compound 170]
Compound Concentration 5 μM
  Inhibition Rate of PAI-1 Activity (%): 38%
Compound Concentration 10 μM
  Inhibition Rate of PAI-1 Activity (%): 73%
Compound Concentration 25 μM
  Inhibition Rate of PAI-1 Activity (%): 94%

## O=C(O)C(=O)N(Cc1c(Cl)cccc1Cl)c1ccc(-c2ccc(OC(F)(F)F)cc2)cc1 [Compound 171]
Compound Concentration 5 μM
  Inhibition Rate of PAI-1 Activity (%): 22%
Compound Concentration 10 μM
  Inhibition Rate of PAI-1 Activity (%): 44%
Compound Concentration 25 μM
  Inhibition Rate of PAI-1 Activity (%): 81%

## CC(C)(C)c1ccc(CN(C(=O)C(=O)O)c2c(Cl)cc(-c3ccc(OC(F)(F)F)cc3)cc2Cl)cc1 [Compound 173]
Compound Concentration 5 μM
  Inhibition Rate of PAI-1 Activity (%): 63%
Compound Concentration 10 μM
  Inhibition Rate of PAI-1 Activity (%): 95%
Compound Concentration 25 μM
  Inhibition Rate of PAI-1 Activity (%): 90%

## CC(C)(C)c1ccc(CN(C(=O)C(=O)O)c2cc(Oc3ccc(OC(F)(F)F)cc3)cc(C(F)(F)F)c2)cc1 [Compound 175]
Compound Concentration 5 μM
  Inhibition Rate of PAI-1 Activity (%): 66%
Compound Concentration 10 μM
  Inhibition Rate of PAI-1 Activity (%): 94%
Compound Concentration 25 μM
  Inhibition Rate of PAI-1 Activity (%): 87%

## Cc1c(-c2ccc(OC(F)(F)F)cc2)cccc1N(Cc1ccc(C(C)(C)C)cc1)C(=O)C(=O)O [Compound 177]
Compound Concentration 5 μM
  Inhibition Rate of PAI-1 Activity (%): 43%
Compound Concentration 10 μM
  Inhibition Rate of PAI-1 Activity (%): 83%
Compound Concentration 25 μM
  Inhibition Rate of PAI-1 Activity (%): 91%

## Cc1cc(-c2ccc(OC(F)(F)F)cc2)cc(N(Cc2ccc(C(C)(C)C)cc2)C(=O)C(=O)O)c1 [Compound 178]
Compound Concentration 5 μM
  Inhibition Rate of PAI-1 Activity (%): 56%
Compound Concentration 10 μM
  Inhibition Rate of PAI-1 Activity (%): 88%
Compound Concentration 25 μM
  Inhibition Rate of PAI-1 Activity (%): 88%

## O=C(O)C(=O)N(Cc1ccccc1)c1c(Cl)cc(-c2ccc(OC(F)(F)F)cc2)cc1Cl [Compound 180]
Compound Concentration 5 μM
  Inhibition Rate of PAI-1 Activity (%): 19%
Compound Concentration 10 μM
  Inhibition Rate of PAI-1 Activity (%): 36%
Compound Concentration 25 μM
  Inhibition Rate of PAI-1 Activity (%): 71%
